Assays:
[1] = system: NIH3T3 background cells; assay: Cell proliferation, SRB assay, NIH3T3 background cells as control; assay type: cell-based; conditions: 72 h
Description: NIH3T3/TPR-Met cells in the logarithmic growth phase and NIH3T3 background cells were seeded in a 96-well microcuture plate at 90111_, per well and cultivated overnight, followed by addition of 104 of the compound at different concentrations. Three concentrations were set, and for each concentration, the test was carried out in triplicate wells. 72 h later, the culture medium was removed. The residue was fixed by precooled 10% TCA at 4° C. for 1 h, washed by distilled water for 5 times and dried at room temperature. After that, 4 mg/mL of sulforodamine B (SRB) in 1% glacial acetic acid was added to each well (1004 per well) for staining at room temperature for 15 min. The excess dye was removed by washed with 1% glacial acetic acid for 5 times and dried in air. At last, 150 μL of Tris-HCL solution (10 mM Tris, pH 10.0) was added to each well. OD values were measured on a multi-well spectrophotometer at […].

[2] = system: Human Glioblastoma Cells U-87MG Xenograft; assay: Tumor growth in human glioblastoma U-87MG xenograft model of nude mice; assay type: in vivo; conditions: for tumor growth inhibition (TGI): 17 days, end of treatment
Description: The treatment group was administered intraperitoneally and daily with compound I-19 at various concentrations (50 mg/kg, 100 mg/kg) respectively.
The length (A) and width (B) of the tumor in mice were measured twice a week and tumor volume was calculated thereby as: V=A×B^2/2. Provided that Vt was the tumor volume measured at a given time point and V0 was the tumor volume measured before the mice were grouped and administered, tumor growth inhibition (TGI) was calculated as: […]

[3] = target: c-Met tyrosine kinase (Homo sapiens, UniProt P08581); assay: c-Met kinase activity on molecular level (ELISA, Poly(Glu,Tyr)4:1 substrate); assay type: biochemical; conditions: ATP 5 μM, 37° C., 1 h
Description: Poly(Glu, Tyr)4:1 as an enzyme substrate was diluted by potassium ion-free PBS (10 mM, sodium phosphate buffer, 150 mM NaCl, pH7.2-7.4) into a solution of 20 μg/ml. […] After the liquid in wells was removed, the plate was washed three time by T-PBS (PBS solution containing 0.1% Tween-20) at 200 μl/well, 5 min for each time. The ELISA plate was then dried in an oven at 37° C. for 1-2 h.
Each well was added with 50 μL of ATP solution diluted by reaction buffer (50 mM HEPES pH 7.4, 50 mM MgCl2, 0.5 mM MnCl2, 0.2 mM Na3VO4, 1 mM DTT) at a final concentration of 5 μM. Compound diluted by 1% DMSO into a suitable concentration was added at 10 μl/well and then c-Met tyrosine kinase protein diluted by 40 μl of reaction buffer was added. The plate was placed on a shaking table (100 rpm) at 37° C. and incubated for 1 h, and then washed three times by T-PBS. For each assay, triplicate wells without enzyme were used as blank control and wells having the corresponding DMSO concentration without compound were used as negative control. Primary antibody PY99 (p-Tyr (PY99), Cell Signaling Technology, 1:1000 diluted in 5 mg/mL BSA T-PBS) was added at 100 μl/well. The plate was then placed on a shaking table at 37° C. and incubated for 0.5 h, and washed by T-PBS. Secondary antibody horseradish peroxidase-conjugated goat anti-mouse IgG (1:2000 diluted in 5 mg/mL BSA T-PBS) was added at 100 μl/well. The plate was then placed on a shaking table at 37° C. for 0.5 h and washed three times by T-PBS. 2 mg/mL of OPD developer (diluted by a 0.1M citric acid-sodium citrate buffer (pH=5.4) containing 0.03% of H2O2) was added at 100 μl/well, and the plate was kept in dark at 25° C. for 1-10 min. OPD was ultrasonically dissolved and the developer solution was prepared just before use. 2 M of H2SO4 was added at 50 μl/well to stop the reaction. The plate was read using a wavelength regulated multi-well spectrophotometer (SPECTRA MAX 190) at 490 nm.
The inhibition rate was calculated according to the following equation:
Inhibition rate (%)=(1−(ODcompound−ODblank)/(ODnegative−ODblank))×100%
IC50 value was calculated through a four-parameter fit according to the inhibition curve.

[4] = system: NIH3T3/TPR-Met cells; assay: Cell proliferation mediated by c-Met, SRB assay, NIH3T3/TPR-Met cells; assay type: cell-based; conditions: 72 h
Description: Three concentrations were set, and for each concentration, the test was carried out in triplicate wells. 72 h later, the culture medium was removed. The residue was fixed by precooled 10% TCA at 4° C. for 1 h, washed by distilled water for 5 times and dried at room temperature. […] The excess dye was removed by washed with 1% glacial acetic acid for 5 times and dried in air. At last, 150 μL of Tris-HCL solution (10 mM Tris, pH 10.0) was added to each well.

[5] = Body weight and death of nude mice bearing U-87MG (toxicity and side effect); conditions: 50 and 100 mg/kg intraperitoneally once daily, 17 days
Description: LI-87MG Cells were inoculated subcutaneously in right axillary fossa of nude mice with 5×10^6 cells per mouse. After the xenografted tumor was formed, it was passed three generations in nude mice and then used. Tumor tissue in productive phase was cut into nubs of about 1.5 mm^3 and inoculated subcutaneously in right axillary fossa of the nude mice in a sterile condition. The diameters of the xenografted tumors were measured by a vernier caliper. […] The administration was performed once daily and lasted for 17 days. At the same time, the negative group was administered with equivalent physiological saline.
wherein, CVt was tumor volume in control group measured at a given time point, CV0 was tumor volume in control group measured before grouping and treatment, TVt was tumor volume in treatment group measured at a given time point, and TV0 was tumor volume in treatment group measured before grouping and treatment. The significant differences between the treated and control groups were evaluated using t-test. At the same time, body weight of nude mice in each group was measured twice a week to preliminarily evaluate the toxicity and side effect of compound.

[6] = target: T1, TPR-Met (Homo sapiens, UniProt P08581); assay: TPR-Met phosphorylation in NIH3T3/TPR-Met cells (Western blot); assay type: cell-based; conditions: 0.01 μM, 6 h
T1 construct: therein no interference of Met's extracellular fragment, and the intracellular TPR-Met fused protein was expressed in cytoplasm; expressed in transfected cells; host or cells: NIH3T3/TPR-Met cells (mouse fibroblasts expressing TPR-Met); the other entry of the earlier key: TPR (P12270, Nucleoprotein TPR)
T1 sequence (P08581 with tags, fused parts or gaps): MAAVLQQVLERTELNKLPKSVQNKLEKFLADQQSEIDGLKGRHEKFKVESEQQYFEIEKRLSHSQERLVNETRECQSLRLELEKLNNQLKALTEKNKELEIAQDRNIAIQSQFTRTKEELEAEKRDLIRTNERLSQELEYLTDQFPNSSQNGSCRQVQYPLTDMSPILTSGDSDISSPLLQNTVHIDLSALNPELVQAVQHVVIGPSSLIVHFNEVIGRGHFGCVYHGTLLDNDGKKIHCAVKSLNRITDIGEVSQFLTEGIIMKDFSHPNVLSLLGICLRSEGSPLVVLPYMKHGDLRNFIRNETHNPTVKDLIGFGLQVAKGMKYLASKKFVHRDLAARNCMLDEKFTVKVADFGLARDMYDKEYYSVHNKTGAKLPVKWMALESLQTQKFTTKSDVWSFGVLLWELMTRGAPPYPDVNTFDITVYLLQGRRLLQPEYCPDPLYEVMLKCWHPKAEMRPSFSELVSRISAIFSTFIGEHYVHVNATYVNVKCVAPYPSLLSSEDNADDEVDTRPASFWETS
Description: NIH3T3/TPR-Met cells (in such cells, therein no interference of Met's extracellular fragment, and the intracellular TPR-Met fused protein was expressed in cytoplasm and could be activated continuously independent of HGF) were inoculated on a 12-well plate. After fusion degree reached 80%, the cells were treated with indicated concentration of corresponding compounds and SU11274 for 6 h at 37° C., collected and washed once by cold PBS (containing 1 mM sodium vanadate), and lysed with 1×SDS gel loading buffer (50 mM Tris-HCl (pH 6.8), 100 mM DTT, 2% SDS, 10% glycerin, 1 mM sodium vanadate, and 0.1% bromophenol blue). The lysate was heated in a boiling-water bath for 10 min and then centrifuged (12000 rpm) at 4° C. for 10 min.
The supernatant was subjected to SDS-PAGE electrophoresis and the protein was transferred to nitrocellulose membranes (Amersham Life Sciences, Arlington Heights, Ill., USA) by a Semi-Dry Electroblotting System. […] The membrane was washed three times by TBS/T containing 1 mM of sodium vanadate, 15 min for each time, and then placed in a solution of secondary antibody (1:2000) at room temperature for 1-2 hours. After the membranes were washed 3 times as above, they were dyed with an ECL reagent, exposed and developed.
The nitrocellulose membranes were placed in Reblot™ solution of Chemicon co. […]

Sequence of c-Met tyrosine kinase (P08581 25-1390): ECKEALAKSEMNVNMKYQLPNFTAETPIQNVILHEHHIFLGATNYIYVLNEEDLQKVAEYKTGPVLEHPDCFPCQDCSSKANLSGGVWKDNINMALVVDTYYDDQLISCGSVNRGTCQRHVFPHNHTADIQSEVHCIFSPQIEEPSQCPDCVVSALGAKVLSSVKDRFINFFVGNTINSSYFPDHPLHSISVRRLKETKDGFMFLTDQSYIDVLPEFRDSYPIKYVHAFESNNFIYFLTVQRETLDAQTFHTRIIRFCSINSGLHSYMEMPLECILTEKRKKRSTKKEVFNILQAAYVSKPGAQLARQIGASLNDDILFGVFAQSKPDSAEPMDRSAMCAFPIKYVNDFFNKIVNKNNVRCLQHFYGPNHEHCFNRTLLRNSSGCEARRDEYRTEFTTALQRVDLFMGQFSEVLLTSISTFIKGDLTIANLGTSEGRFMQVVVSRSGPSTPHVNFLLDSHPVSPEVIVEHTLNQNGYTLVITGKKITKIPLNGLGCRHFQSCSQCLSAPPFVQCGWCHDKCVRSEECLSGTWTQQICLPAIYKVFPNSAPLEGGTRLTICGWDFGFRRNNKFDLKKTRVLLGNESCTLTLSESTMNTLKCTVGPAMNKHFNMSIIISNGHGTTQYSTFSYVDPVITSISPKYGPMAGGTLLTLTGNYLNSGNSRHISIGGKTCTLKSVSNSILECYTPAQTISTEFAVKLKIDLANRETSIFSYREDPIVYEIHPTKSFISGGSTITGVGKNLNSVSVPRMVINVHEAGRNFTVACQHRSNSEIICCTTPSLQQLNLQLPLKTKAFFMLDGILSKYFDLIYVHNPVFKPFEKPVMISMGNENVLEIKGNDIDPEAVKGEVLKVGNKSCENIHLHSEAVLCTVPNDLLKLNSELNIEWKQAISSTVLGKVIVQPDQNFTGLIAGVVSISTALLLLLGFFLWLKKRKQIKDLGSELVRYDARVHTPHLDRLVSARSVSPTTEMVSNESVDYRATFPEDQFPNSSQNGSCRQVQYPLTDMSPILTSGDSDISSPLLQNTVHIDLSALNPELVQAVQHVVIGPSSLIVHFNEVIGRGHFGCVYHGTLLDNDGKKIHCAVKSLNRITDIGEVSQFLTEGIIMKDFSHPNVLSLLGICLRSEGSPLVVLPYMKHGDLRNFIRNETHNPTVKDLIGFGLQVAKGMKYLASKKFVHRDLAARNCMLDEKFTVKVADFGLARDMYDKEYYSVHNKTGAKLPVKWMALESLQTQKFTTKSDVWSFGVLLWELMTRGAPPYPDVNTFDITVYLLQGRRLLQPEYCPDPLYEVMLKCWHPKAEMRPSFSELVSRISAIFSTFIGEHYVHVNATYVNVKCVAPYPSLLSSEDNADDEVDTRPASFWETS

IC50 [3]: 0.95 nM
c-Met phosphorylation in NIH3T3/TPR-Met cells [6]: less potency
Compound: Cn1cc(-c2ccc3nnc(C(F)(F)c4ccc5ncccc5c4)n3n2)cn1 [JNJ-38877605, reference compound]
inhibition rate (%) on proliferation of NIH3T3 background cells ([1]; 1 μM): 16.0%
inhibition rate (%) on proliferation of NIH3T3 background cells ([1]; 10 μM): 15.1%
inhibition rate (%) on proliferation of NIH3T3 background cells ([1]; 50 μM): 25.7%
tumor growth inhibition (TGI) ([2]; 50 mg/kg intraperitoneally once daily): 101.4%
tumor growth inhibition (TGI) ([2]; 100 mg/kg intraperitoneally once daily): 106.9%
inhibitory action on the growth of transplanted tumor ([2]; at each administration dose (50, 100 mg/kg i.p. daily)): significantly inhibitory action
inhibition rate (%) on proliferation of NIH3T3/TPR-Met cells ([4]; 1 μM): 70.8%
inhibition rate (%) on proliferation of NIH3T3/TPR-Met cells ([4]; 10 μM): 72.2%
inhibition rate (%) on proliferation of NIH3T3/TPR-Met cells ([4]; 50 μM): 77.3%
weight loss of nude mice [5]: No mouse in I-19 or JNJ-38877605 treated group show obvious weight loss

Source: patent US20130324542A1, “[1,2,4]TRIAZOLO[4,3-B][1,2,4]TRIAZINE COMPOUNDS, PREPARATION METHOD AND USE THEREOF” (SHANGHAI INSTITUTE OF MATERIA MEDICA, CHINESE ACADEMY OF …, priority 2010, published 2013)
